Test system: THP1-FRβ
Assay: AML study, intravenous xenografts, EC17 dosing regimens
Type: in vivo, NSG mice
Protocol: All animal care and use were performed according to NIH guidelines and in compliance with protocols approved by the Purdue University Animal Use and Care Committee. Female 4 to 5-weeks-old NOD/SCID gamma (NSG™) mice (stock number: 005557) were purchased from The Jackson Laboratory (Bar Harbor, ME). Unless specifically indicated, all animals were maintained on a FA-deficient diet (TestDiet, St. Louis, MO) upon arrival and throughout the study. To establish subcutaneous xenografts, MDA-MB-231 and HOS-FRα were implanted in the right flank region at 2.5 × 10^6 and 1 × 10^6 cells per animal, respectively. For intravenous xenografts, THP1-FRβ cells were inoculated at 5 × 10^6 cells per animal. Subcutaneous tumors were measured 2–3 times per week with a caliper and calculated using the ellipsoidal formula (length x width^2)/2. […] All animal doses (CAR-T cells, EC17, sodium fluorescein) were given intravenously.
For AML studies, mice were intravenously infused with THP1-FRβ tumor cells 1 day prior to receiving a low dose of ~6 million E2-CAR-T cells (~23% EGFRt+). At ~3.5 days post CAR-T cell infusion, EC17 was dosed in 3 different ways including (i) SIW at 500 nmol/kg, (ii) thrice at 5/50/500 nmol/kg on Monday/Wednesday/Friday followed by a 9 day break in between cycles (TIW On/Off), and iii) as escalating doses of 5/10/100 nmol/kg in Cycle 1, 5/30/300 nmol/kg in Cycle 2, and 5/50/500 nmol/kg in Cycle 3, all on Monday/Thursday/Monday with a 6 day break in between cycles (M/Th/M, On/Off). On day 31, satellite animals were harvested for quantification of CAR-positive T cells identified in the mouse blood as human CD3ε+ EGFRt+ events and calculated as absolute numbers per 100 μL of whole blood. Upon euthanasia or at the end of study on day 38, total tumor load in THP1-FRβ tumor-bearing mice was assessed by measuring GFP+ tumor cells in the blood by flow cytometry and collecting liver weight (with metastatic lesions) and total weight of nonliver macrometastases found in the body cavities. Tumor fragments of liver metastases were enzymatically digested into single-cell suspensions and viable cell populations were analyzed for the status of CAR-T cell exhaustion using anti-human PD1, LAG3, and TIM3 (clones EH12.1, T47-530, and 7D3, respectively).
Depending on the CAR-T cell dose and how EC17 is administered, tumor-bearing mice receiving FITC-specific CAR-T cells can experience severe CRS and varying degrees of body weight loss ([27], [33], [34]). Therefore, we developed a CRS grading system (0–5 scale) to empirically assess CRS toxicity from animals' gross morphology and social behavior to allow for better timing of CRS rescue. While grades 0 and 5 indicated normal (no CRS) or death (due to severe CRS), respectively, grades 1, 2, and 3–4 were considered mild, light-to-moderate, and severe CRS. In addition, all EC17 doses were intentionally given toward the end of any given day to allow potential CRS symptoms to develop overnight. On the days immediately following each EC17 dose, animals were scored and rescue agents such as sodium fluorescein, folic acid and leucovorin were used to mitigate CRS toxicity ([33]). In this particular instance, a batch of E2-CAR-T cells with a high EGFRt+ CD4/CD8 ratio (~93:7) was given to HOS-FRα tumor-bearing mice at a mixture of ~2.5 million CD8 and ~33 million CD4 on day 0. When EC17 was dosed, respectively, at 500, 100, and 500 nmol/kg on days 3, 10, and 12, low CRS (grades 1–2) was noted on days 4 and 11 but high CRS (grade 3) was noted on day 13. To mitigate the severe CRS toxicity, sodium fluorescein was intravenously administrated at ~96 mg/kg in the morning of day 13 and mouse plasma samples were collected 6 h later for analysis of CRS-associated cytokines.

Nc1nc2ncc(CNc3ccc(C(=O)NC(CCC(=O)NCCNC(=S)Nc4ccc(-c5c6ccc(=O)cc-6oc6cc(O)ccc56)c(C(=O)O)c4)C(=O)O)cc3)nc2c(=O)[nH]1 (stereo not shown) [EC17, FA-(γ)-ethylenediamine-FITC]
non-liver macrometastases (EC17 M/Th/M dose escalation at a slow pace per cycle): failed to control
CRS grade (EC17 M/Th/M dose escalation, Cycle 2 after 300 nmol/kg, ~6 million E2-CAR-T cells): 0–1
CRS grade (EC17 SIW 500 nmol/kg, Cycles 2 and 3, ~6 million E2-CAR-T cells): 1–2
non-liver macrometastases (EC17 SIW and TIW at 10-fold dose escalation (on/off)): successfully controlled
CRS grade (EC17 TIW 5/50/500 nmol/kg on/off, ~6 million E2-CAR-T cells): 0–1
cures (THP1-FRβ xenografts, EC17 plus E2-CAR-T cells): no cures
circulating THP1-FRβ tumor cells in the blood (any of the 3 EC17 regimens vs controls, ~6 million E2-CAR-T cells): effectively reduced
